What was measured:
Assay type in all cases: cell-based, human
[1] = tested on: Mia PaCa-2 cells; experiment: ATP assay (ATP depletion / cell viability) in Mia PaCa-2 cells; conditions: Relative activity compare with β-lapachone in ATP depletion of Mia PaCa-2 cells
Experimental: (§1) In vitro anti-cancer activity of the compound were performed using ATP Assay Kit (Abcam, ab83355) to initially screen, and further performed using 7-day DNA assay.
(§2) Cell culture: endogenous NQO1 overexpressing human MIA PaCa-2 pancreactic and A549 NSCLC cancer cells were obtained (Bey, et al., 2007; Li, et al., 2011). Cancer cells were grown in DMEM with 5% FBS and Mycoplasma free, and cultured at 37° C. in a 5% CO2 95% air humidified atmosphere.
ATP assay: Cells were seeded into each well of a 96-well plate (15000 cells/well) 18 hours ahead of experiment. After aspiration of the media from each well, 100 μl drug-contained media was added instead, and further incubated for 2 hours. After incubation, 100 μl ATP assay kit mixture was added into every well. Following further shaking for 10 minutes with light proof, the data were collected by reading luminescence integrate 1 second per well.

[2] = tested on: A549 cells; experiment: Cell viability in A549 cells (7-day DNA assay); conditions: relative to β-lapachone
Experimental: as §1, §2
DNA assay: Cells were seeded into each well of a 48-well plate (10000 cells/well) 24 hours ahead of experiment. After aspiration of the media from each well, 500 μl drug-contained media was added instead, and further incubated for 2 hours. Drugs were then removed, control growth medium was added, and cells were allowed to grow for an additional 7 days. Drugs were added to medium at a 1:1000 dilution immediately before administration to cells. DNA content (a measure of cell growth) was determined by fluoresence of the DNA dye Hoescht 33258 (Sigma), and read in a Cytofluor fluoresence plate reader. Data were expressed as relative growth with 6 repetitions.

[3] = tested on: MiaPaca 2; experiment: Relative survival DNA assay, MiaPaca 2, with or without dicoumarol; conditions: MiaPaca 2, FIGS. 4A-4C
Experimental: (§3) Cell Lines and Culture. Endogenous NQO1 overexpressing human MiaPaca-2 (pancreatic carcinoma), A549 (None-small cell lung carcinoma), and MCF-7 (breast adenocarcinoma) were obtained (Bey, et al., 2007; Li, et al., 2011). All cell lines were grown in DMEM (Life Technologies) containing 5%-10% FBS (Fisher Scientific) in a 5% CO2 and 95% air incubator at 37° C.
(§4) Relative Survival Assays. Relative survival was assessed by DNA content and colony forming assays as described (Dong, et al., 2010). Briefly, for DNA content, cells were seeded at 1×10^4 per well in 48-well plates and allowed to attach overnight. Cells were then mock treated or treated with various doses of naphthaquinones (for 2 hours) in the presence or absence of dicoumarol as indicated. Drug-free medium was then added and cells were allowed to grow for 5 to 7 days until control cells reached ˜100% confluence. DNA content was then determined by Hoechst 33258 staining and fluorescence detection using a plate reader (Perkin-Elmer).

[4] = tested on: MCF-7; experiment: Relative survival DNA assay, MCF-7, with or without dicoumarol; conditions: MCF-7, FIGS. 4D-4F
Experimental: as §3, §4

[5] = tested on: A549; experiment: Relative survival DNA assay, A549, with or without dicoumarol; conditions: A549, FIGS. 4G-4I
Experimental: as §3, §4

Row | Compound | IC50/IC50 (β-lapachone/Compoud) [1] | IC50/IC50 (β-lapachone/Compoud) [2] | DNA amount in survival assay relative to β-lapachone [3] | DNA amount in survival assay relative to β-lapachone [4] | DNA amount in survival assay relative to β-lapachone [5]
1 | CCCCCCOC1=CC(=O)C(=O)c2c(NC(C)=O)cccc21 [Compound 28, N-(5-(hexyloxy)-7,8-dioxo-7,8-dihydronaphthalen-1-yl)acetamide] | 1~2 | 1~2 |  |  | 
2 | CC(C)OC1=CC(=O)C(=O)c2c(O)cccc21 [Compound 38, 8-hydroxy-4-isopropoxynaphthalene-1,2-dione] | 1~2 | 1~2 |  |  | 
3 | CC(C)OC1=CC(=O)C(=O)c2cc(Cl)c(Cl)cc21 [Compound 37, 6,7-dichloro-4-isopropoxynaphthalene-1,2-dione] | 1~2 | 0.3~1 |  |  | 
4 | COCCOCCOC1=CC(=O)C(=O)c2c(NC(C)=O)cccc21 [Compound 49, N-(5-(2-(2-methoxyethoxy)ethoxy)-7,8-dioxo-7,8-dihydronaphthalen-1-yl)acetamide] | 0.3~1 | 0.3~1 |  |  | 
5 | CC(C)OC1=CC(=O)C(=O)c2c(NS(C)(=O)=O)cccc21 [Compound 21, N-(5-isopropoxy-7,8-dioxo-7,8-dihydronaphthalen-1-yl)methanesulfonamide] | >3 | >3 | decreased DNA amounts at lower concentrations relative to β-lapachone | decreased DNA amounts at lower concentrations relative to β-lapachone | decreased DNA amounts at lower concentrations relative to β-lapachone
